Reference: publication PMC4012000 (Pharmaceutical research, 2013)

System: Caco-2 cells
Assay: Effect of curcumin on efflux transporters and permeability in Caco-2 cells
Type: cell-based
Details: in vitro studies, data not shown

**Q.** Which “effect on efflux transporters” value does the source give for `COc1cc(/C=C/C(=O)CC(=O)/C=C/c2ccc(O)c(OC)c2)ccc1O` [curcumin, Curcumin] here?
**A.** down-regulation of BCRP, MDR1 and MRP1
